Assay results published in PMC5419589 (Bioorganic & medicinal chemistry, 2016).

Columns and labels:
[1] = severe side effects of treatment; cited from earlier work
[2] = Brain:plasma compound concentration measurements in mice; type: in vivo; details: following intraperitoneal injection in mice
[3] = tested on: T. brucei brucei strain BF427; assay: T. brucei growth inhibition assay; type: cell-based, Trypanosoma brucei brucei; details: T. brucei EC50 assay
[4] = tested on: T. brucei brucei (strain TREU667); assay: Chronic; type: in vivo, mouse; details: for relapse with parasites in the blood / suppression of parasitemia during treatment phase: TREU667, 50 mg/kg twice a day oral day 21 to 34; for number of mice free of parasitemia/number of mice in the group: same dosing
[5] = Mouse oral pharmacokinetics; type: in vivo; details: mice

For Nc1nc(N)nc(Nc2ccc([As]3SCC(CO)S3)cc2)n1 (centres unmarked) [Melarsoprol], the fatalities in patients [1] is listed as 3–10%.

In the case of Cl.NCCN(C(=O)c1ccc(Cl)cc1Cl)c1ccc(F)cc1 [Compound 1], the “permeability into brain tissue (in words)” value [2] was “excellent permeability into brain tissue”.

In the case of Cl.NCCN(C(=O)c1ccc(F)cc1C(F)(F)F)c1ccc(OCc2ccc(Cl)cc2)cc1 [Compound 65, N-(2-Aminoethyl)-N-{4-[(4-chlorophenyl)methoxy]phenyl}-4-fluoro-2-(trifluoromethyl)benzamide hydrochloride], the “activity on T. brucei cells (in words)” value [3] was “single digit nanomolar EC50 values”, the “relapse with parasites in the blood” value [4] was “all mice relapsed” and the “suppression of parasitemia during treatment phase” value [4] was “partial suppression”. For the same compound, the “number of mice free of parasitemia/number of mice in the group” value ([4]; day 35 post-infection, day 1 post-treatment) was 4/4, the “number of mice free of parasitemia/number of mice in the group” value ([4]; day 36 post-infection, day 2 post-treatment) was 4/4 and the “number of mice free of parasitemia/number of mice in the group” value ([4]; day 37 post-infection, day 3 post-treatment) was 2/4. For the same compound, the “number of mice free of parasitemia/number of mice in the group” value ([4]; day 38 post-infection, day 4 post-treatment) was 1/4, the “number of mice free of parasitemia/number of mice in the group” value ([4]; day 39 post-infection, day 5 post-treatment) was 1/4 and the “number of mice free of parasitemia/number of mice in the group” value ([4]; day 40 post-infection, day 6 post-treatment) was 1/4. For the same compound, the “number of mice free of parasitemia/number of mice in the group” value ([4]; day 41–42 post-infection, day 7–8 post-treatment) was 1/4, the “number of mice free of parasitemia/number of mice in the group” value ([4]; day 43–45 post-infection, day 9–11 post-treatment) was 1/4 and the “number of mice free of parasitemia/number of mice in the group” value ([4]; day 46–49 post-infection, day 12–15 post-treatment) was 0/4.

For CC(C)c1ccc(COc2ccc(N(CCN)C(=O)c3cccnc3C(F)(F)F)cc2)cc1.Cl [Compound 73], the “oral bioavailability (in words)” value [5] was “orally bioavailable”, the “relapse with parasites in the blood” value [4] was “all mice relapsed” and the “suppression of parasitemia during treatment phase” value [4] was “complete suppression”.
